“Also recorded” adds a separate entry of the source.
Legend:
[1] = test system: patients with PFIC; experiment: Pooled PEDFIC 1/2 (up to 72 weeks): serum bile acids, pruritus and sleep parameters, correlations, responders; assay type: in vivo, human
Description: Methods: PEDFIC 1 was a randomized, double-blind study in children with PFIC1 or PFIC2; patients received either once-daily placebo, odevixibat 40 μg/kg, or odevixibat 120 μg/k g for 24 weeks. PEDFIC 2 is an ongoing, 72 week extension study in patients with any type of PFIC in which all patients receive odevixibat 120 μg/kg/day. In both PEDFIC 1 and PEDFIC 2, eligible patients had elevated serum bile acids and significant pruritus at screening. Here, patient pruritus and sleep-related data (including tiredness during the day) were included, which were evaluated twice daily by caregivers using the validated PRUCISION scale via an electronic diary. Pruritus and tiredness responses range from 0 to 4, with higher scores indicating worse symptoms; other sleep assessments include questions with Yes/No response s. Correlations between percentage change from baseline in serum bile acids and change from baseline in observer-reported diary data (pruritus, sleep characteristics) were assessed as post hoc analyses and are summarized with Pearson coefficient s (r).

[2] = test system: children with PFIC1 or PFIC2; experiment: PEDFIC 1: safety (treatment-emergent adverse events)
Description: The primary safety analysis for PEDFIC 1 was based on the incidence of treatment-emergent adverse events (TEAEs). TEAEs were categorized by causality, severity, and seriousness for odevixibat and placebo. Other safety assessments included physical examinations, vital signs, laboratory tests, and abdominal ultrasounds (liver and spleen).
Secondary endpoints, exploratory endpoints, subgroup analyses, and safety data were summarized descriptively. Adverse events (AEs) were coded using Medical Dictionary for Regulatory Activities version 23.0.

[3] = PEDFIC 1, 120 μg/kg/day, n = 19

CCCCC1(CCCC)CN(c2ccccc2)c2cc(SC)c(OCC(=O)N[C@@H](C(=O)N[C@@H](CC)C(=O)O)c3ccc(O)cc3)cc2S(=O)(=O)N1 [Odevixibat, 1,1-dioxo-3,3-dibutyl-5-phenyl-7-methylthio-8-(N-{(R)-α-[N-((S)-1-carboxypropyl)carbamoyl]-4-hydroxybenzyl}carbamoylmethoxy)-2,3,4,5-tetrahydro-1,2,5-benzothiadiazepine]
serious drug-related TEAEs or deaths ([1]; pooled PEDFIC 1/2, 84 patients): No serious drug-related TEAEs or deaths occurred | patients who met criteria for serum bile acid response ([1]; pooled PEDFIC 1/2, during odevixibat treatment (up to 72 weeks)): approximately 40% | Serum bile acids, Change From Baseline to Weeks 49-72, Mean ([1]; pooled PEDFIC 1/2, n 32, baseline 246 μmol/L): −53% (9%) | Tiredness score, Change From Baseline to Weeks 49-72, Mean (SE) ([1]; pooled PEDFIC 1/2, n 34, baseline 2.3): −1.2 (0.2) | Pruritus score, Change From Baseline to Weeks 49-72, Mean (SE) ([1]; pooled PEDFIC 1/2, n 34, baseline 2.8): −1.5 (0.2) | Number of awakenings, Change From Baseline to Weeks 49-72, Mean (SE) ([1]; pooled PEDFIC 1/2, n 34, baseline 8): −7 (3) | Days taking medications to induce sleep, Change From Baseline to Weeks 49-72, Mean (SE) ([1]; pooled PEDFIC 1/2, n 34, baseline 24): −3 (4) % | Days with scratching associated with bleeding, Change From Baseline to Weeks 49-72, Mean (SE) ([1]; pooled PEDFIC 1/2, n 34, baseline 38): −21 (7) % | Days patient slept with caregiver, Change From Baseline to Weeks 49-72, Mean (SE) ([1]; pooled PEDFIC 1/2, n 34, baseline 67): −38 (8) % | Days patient needed soothing, Change From Baseline to Weeks 49-72, Mean (SE) ([1]; pooled PEDFIC 1/2, n 34, baseline 75): −48 (9) % | Days patient needed help falling asleep, Change From Baseline to Weeks 49-72, Mean (SE) ([1]; pooled PEDFIC 1/2, n 34, baseline 78): −55 (8) % | patients achieving a treatment response (serum bile acid and/or pruritus criteria) ([1]; pooled PEDFIC 1/2, up to 72 weeks): approximately 60% | tolerability ([1]; up to 72 weeks of odevixibat treatment): generally well tolerated | Any TEAE, patients ([2]; PEDFIC 1, 40 μg/kg/day, n = 23): 19 (82.6) n (%) | Drug-related TEAE, patients ([2]; PEDFIC 1, 40 μg/kg/day, n = 23): 7 (30.4) n (%) | Drug-related TEAE: ALT increased, patients ([2]; PEDFIC 1, 40 μg/kg/day, n = 23): 2 (8.7) n (%) | Drug-related TEAE: AST increased, patients ([2]; PEDFIC 1, 40 μg/kg/day, n = 23): 2 (8.7) n (%) | Drug-related TEAE: Blood bilirubin increased, patients ([2]; PEDFIC 1, 40 μg/kg/day, n = 23): 2 (8.7) n (%) | Drug-related TEAE: Diarrhea/frequent bowel movements, patients ([2]; PEDFIC 1, 40 μg/kg/day, n = 23): 2 (8.7) n (%) | Liver-related TEAEs, patients ([2]; PEDFIC 1, 40 μg/kg/day, n = 23): 5 (21.7) n (%) | Mild TEAE, patients ([2]; PEDFIC 1, 40 μg/kg/day, n = 23): 11 (47.8) n (%) | Moderate TEAE, patients ([2]; PEDFIC 1, 40 μg/kg/day, n = 23): 7 (30.4) n (%) | Serious TEAEs, patients ([2]; PEDFIC 1, 40 μg/kg/day, n = 23): 0 n (%) | Severe TEAE, patients ([2]; PEDFIC 1, 40 μg/kg/day, n = 23): 1 (4.3) n (%) | TEAEs leading to discontinuation, patients ([2]; PEDFIC 1, 40 μg/kg/day, n = 23): 0 n (%) | Any TEAE, patients [2, 3]: 16 (84.2) n (%) | Drug-related TEAE, patients [2, 3]: 7 (36.8) n (%) | Drug-related TEAE: ALT increased, patients [2, 3]: 2 (10.5) n (%) | Drug-related TEAE: AST increased, patients [2, 3]: 1 (5.3) n (%) | Drug-related TEAE: Blood bilirubin increased, patients [2, 3]: 2 (10.5) n (%) | Drug-related TEAE: Diarrhea/frequent bowel movements, patients [2, 3]: 2 (10.5) n (%) | Liver-related TEAEs, patients [2, 3]: 6 (31.6) n (%) | Mild TEAE, patients [2, 3]: 8 (42.1) n (%) | Moderate TEAE, patients [2, 3]: 6 (31.6) n (%) | Serious TEAEs, patients [2, 3]: 3 (15.8) n (%) | Severe TEAE, patients [2, 3]: 2 (10.5) n (%) | TEAEs leading to discontinuation, patients [2, 3]: 1 (5.3) n (%) | deaths, treatment-related serious AEs, TEAEs related to liver decompensation ([2]; PEDFIC 1, 24 weeks): No deaths, treatment-related serious AEs, or TEAEs related to liver decompensation occurred; also recorded: no deaths or treatment-related serious adverse events | tolerability ([2]; PEDFIC 1, 40 and 120 μg/kg/day over 24 weeks): well tolerated | patients with at least one TEAE ([2]; PEDFIC 1, all doses (35 of 42 patients)): 83% | Any TEAE, patients ([2]; PEDFIC 1, all doses, n = 42): 35 (83.3) n (%) | Drug-related TEAE, patients ([2]; PEDFIC 1, all doses, n = 42): 14 (33.3) n (%) | Drug-related TEAE: ALT increased, patients ([2]; PEDFIC 1, all doses, n = 42): 4 (9.5) n (%) | Drug-related TEAE: AST increased, patients ([2]; PEDFIC 1, all doses, n = 42): 3 (7.1) n (%) | Drug-related TEAE: Blood bilirubin increased, patients ([2]; PEDFIC 1, all doses, n = 42): 4 (9.5) n (%) | Drug-related TEAE: Diarrhea/frequent bowel movements, patients ([2]; PEDFIC 1, all doses, n = 42): 4 (9.5) n (%) | Liver-related TEAEs, patients ([2]; PEDFIC 1, all doses, n = 42): 11 (26.2) n (%) | Mild TEAE, patients ([2]; PEDFIC 1, all doses, n = 42): 19 (45.2) n (%) | Moderate TEAE, patients ([2]; PEDFIC 1, all doses, n = 42): 13 (31.0) n (%) | Serious TEAEs, patients ([2]; PEDFIC 1, all doses, n = 42): 3 (7.1) n (%) | Severe TEAE, patients ([2]; PEDFIC 1, all doses, n = 42): 3 (7.1) n (%) | TEAEs leading to discontinuation, patients ([2]; PEDFIC 1, all doses, n = 42): 1 (2.4) n (%) | TEAE vomiting ([2]; PEDFIC 1, all doses, placebo 0%): 17% | TEAE ALT increase ([2]; PEDFIC 1, all doses, placebo 5%): 14% | TEAE serum bilirubin increase ([2]; PEDFIC 1, all doses, placebo 10%): 12% | TEAE upper respiratory tract infection ([2]; PEDFIC 1, all doses, placebo 15%): 19% | TEAEs considered related to study drug by the investigator ([2]; PEDFIC 1, all doses, placebo 15.0%): 33.3% | TEAE fever ([2]; PEDFIC 1, all doses, placebo 25%): 29% | treatment-related AEs of diarrhea or frequent bowel movement ([2]; PEDFIC 1, odevixibat-treated patients): 9.5%

From patent publication US12447156B2, “Treating progressive familial intrahepatic cholestasis (PFIC) with IBAT inhibitors” (ALBIREO AB, priority 2020, dated 2025)
